According to patent publication US8865770B2, “Carbamide peroxide treatments for the reproductive tract” (Vets Plus, Inc., priority 2011, dated 2014):

Key:
[1] = tested on: metritis-causing organisms; test: In vitro killing of bacteria in uterine discharge from a cow with confirmed metritis; assay type: cell-based
Protocol: In vitro testing: One-ml aliquots of uterine discharge from a cow with confirmed metritis were collected and diluted with 1 ml of water. The aliquots were incubated for 30 minutes at 37° C. either in the presence of 7.0% carbamide peroxide (test) or in the absence of carbamide peroxide (control). Bacteria from each treatment were washed and centrifuged, reconstituted in media, and plated on suitable culture media plates. The plates were incubated for three days. […] A similar experiment was conducted using urea in place of carbamide peroxide. The concentration of urea used was 11.3%. This is the equivalent amount of urea found in 4 urea boluses per 16 ounces of water, which is recommended for in vivo treatment using commercially available urea boluses.

[2] = tested on: postpartum cows with retained placenta; test: Clinical trials of intrauterine bolus in cows having retained placenta; assay type: in vivo; settings: single bolus containing 3.5 grams carbamide peroxide inserted in the uterus
Protocol: Efficacy of carbamide peroxide administration in treating retained placenta was tested in clinical trials with cows having retained placenta. A single bolus containing 3.5 grams carbamide peroxide was inserted in the uterus of postpartum cows with retained placenta.

[3] = tested on: cow diagnosed with severe metritis and vaginitis; test: Uterine flush (wash format) in a cow with severe metritis and vaginitis; assay type: in vivo; settings: two boluses comprising 3.5 g carbamide peroxide dissolved in 1 quart of water, uterus flushed; cow 5 days after calving
Protocol: Efficacy of carbamide peroxide administration in a wash format was tested with a cow diagnosed with severe metritis and vaginitis. A cow that had calved 5 days previously presented a foul smelling uterine discharge. Upon clinical examination, it was discovered that remnants of the placenta were still in the uterus and that the animal was off feed. Antibiotics were not preferred for treatment, as sale of milk from the cow was very important. (Antibiotic residue in milk is not permitted if sale of milk is to occur.) Two boluses comprising 3.5 g carbamide peroxide were dissolved in 1 quart of water, and the uterus of the cow was flushed out with the flush. Within 24-48 hours, the uterine discharge had cleared, the cow was on feed again, and placental remnants were gone. The animal was able to be milked easier than prior to treatment, and the cow was returned to normal service in good health. As no antibiotics were used, the milk was not required to be discarded, and the owner was able to make financial gain from the sale of the milk.

[4] = tested on: cows diagnosed with metritis; test: Clinical trials of intrauterine bolus in cows diagnosed with metritis; assay type: in vivo; settings: single bolus containing 3.5 grams carbamide peroxide inserted in the uterus
Protocol: Efficacy of carbamide peroxide administration for treating metritis was tested in clinical trials with cows diagnosed with metritis. A single bolus containing 3.5 grams carbamide peroxide was inserted in the uterus of cows showing metritis symptoms such as foul uterine discharge. […] As no antibiotics were required in these cases, no milk had to be discarded. Because no milk was discarded, full financial benefit to the farmer was received for selling more milk than would have occurred if milk had to be discarded due to the presence of antibiotics. […] This indicates the carbamide peroxide administration is safe for use for the long term health of the cow and helps reduce subsequent reproduction failures.

SMILES	bacteria colonies on culture plates after treatment ([1]; 7.0% carbamide peroxide, 30 minutes at 37° C., plates incubated three days, control plates had hundreds of colonies)	foul uterine discharge after treatment [2]	shedding of retained placenta [2]	time until uterine discharge had cleared, cow on feed again, placental remnants gone [3]	feed intake during the treatment [4]	need for follow-up with antibiotics [4]	subsequent conception and calving (long-term safety) [4]	uterine discharge (metritis symptom) [4]	bacteria colonies on culture plates after treatment ([1]; 11.3% urea in place of carbamide peroxide, similar experiment)
NC(N)=O.OO [carbamide peroxide]	no colonies were found	no foul uterine discharge	The next day, the retained placenta was shed naturally	24 to 48 h	did not go off feed	No follow-up with antibiotics were required	subsequently conceived safely and had healthy calves	improved and reduced quickly	–
NC(N)=O [urea, reference compound]	–	–	–	–	–	–	–	–	several bacterial colonies still being present
